In patent publication USH1168H, “Inhibitors of protein kinase C activity as protectors against septic shock and reducers of ARDS” (priority 1991, dated 1993):
Entries after “also recorded” stand apart in the source; their conditions may differ.

Legend:
PKC = conditions: literature (19, 42); cited from earlier work
[1] = tested on: de-endothelialized rat aortic rings; test: KCl-induced contraction of de-endothelialized rat aortic rings after 16 h incubation with LPS and/or sphingosine; type: cell-based; conditions: for EC50: Rattus norvegicus, 16 h, de-endothelialized, read-out: EC50 value for KCl stimulated contraction (EC50 of the agonist KCl)
Protocol: (§1) FIG. 3 is a graph showing contraction to cumulative doses of NE and KCl by rat de-endothelialized aortic rings incubated for 16 hr in combinations of control, LPS, and sphingosine treated media. (Panel A) Contraction to NE by rings incubated in medium only (open circles), medium plus sphingosine (20 μM, closed circles), medium containing LPS (35 ng/ml, open triangles), and medium containing LPS plus sphinogosine (closed triangles). (Panel B) Contraction to KCl by rings incubated and denoted with the same symbols as detailed above. Four rings were prepared from each rat and one ring allocated into each medium formulation to evaluate responses to NE. Rings were similarly prepared to determine responses to KCl. Data is presented as in FIG. 1. N=7 rats apiece for assessment of responses to NE and KCl.
(§2) Tissue preparation and incubation. Male Sprague-Dawley rats (250-350 g, Taconic Farms, Germantown, N.Y.) were used. Rat thoracic aortic rings were prepared and incubated as detailed by McKenna (14). In brief, 4 or 6 rings were prepared from each rat. Care was taken during dissection to maintain the patency of the endothelium. Some aortas were de-endothelialized before sectioning into rings by perfusion with phosphate buffered saline (PBS) containing 1% deoxycholate for 30 sec followed by a PBS and bubble rinse for 5 min. Rings were incubated in DME (Dulbecco's Modified Eagle's medium) supplemented with 1% fetal calf serum, 100 μg/ml streptomycin, and 100 U/ml penicillin. During incubation, the rings were exposed to combinations of LPS (10 or 35 ng/ml), H7 (25 μM), HA1004 (N-(2-guanidinoethyl)-5-isoquinolinesulfonamide) (25 μM), sphingosine (20 μM), or their vehicles. […] Rings used in measures of contractile performance were placed individually in Petri dishes containing 1.2 ml DME and were distributed so that tissue isolated from each aorta was allocated to every combination of treatments within an experiment. […] All tissue isolated from an aorta (six rings) was allocated to a single treatment. The media and rings were rotated gently for 16-18 hr in an incubator at 37° C. under a 95% O2 -5% CO2 atmosphere.
(§3) Measurement of aortic ring contraction. After incubation, rings were mounted in tissue baths, equilibrated, and pre-contracted as previously detailed (14). These procedures required approximately 90 min. Rings were maintained in Krebs Ringer Bicarbonate buffer (KRB, 14). Contractions by six or eight rings were measured simultaneously and recorded on multichannel strip chart recorders. […] Other rings were contracted by withdrawing KRB from the tissue baths and adding increasing volumes of a high KCl KRB (120 mM, made by equimolar substitution of KCl for NaCl) to the baths to yield final KCl concentrations of 10 to 80 mM. All rings were blotted and weighed after experiments were completed.
Statistics. […] Tests for differences between EC50 values were based on log EC50 values (17). EC50 values were then converted to […] means to allow expression as nanomolar concentrations. Examination of differences among four or six treatment means was by randomized blocks analysis of variance; if significant differences were present, then pairs of means were tested by Student-Newman-Keuls a posteriori tests (18). Paired t-tests were used to assess differences between two treatment means. […] Differences with probabilities of 0.05 or less were accepted as significant. All data are expressed as means±SEM. […]

[2] = stated without test or source; cited from earlier work
[3] = tested on: de-endothelialized rat aortic rings; test: NE-induced contraction of de-endothelialized rat aortic rings after 16 h incubation with LPS and/or sphingosine; type: cell-based; conditions: for EC50: Rattus norvegicus, 16 h, de-endothelialized, read-out: EC50 value for NE stimulated contraction (EC50 of the agonist NE)
Protocol: as §1, §2, §3
(§4) Statistics. […] Tests for differences between EC50 values were based on log EC50 values (17). EC50 values were then converted to […] means to allow expression as nanomolar concentrations. Examination of differences among four or six treatment means was by randomized blocks analysis of variance; if significant differences were present, then pairs of means were tested by Student-Newman-Keuls a posteriori tests (18). Paired t-tests were used to assess differences between two treatment means. […] Differences with probabilities of 0.05 or less were accepted as significant. All data are expressed as means±SEM.
The amelioration of LPS-induced vascular contractile dysfunction by inhibition of PKC was further explored in de-endothelialized aortic rings incubated with D-sphingosine. The de-endothelialized rings were incubated with 35 ng/ml LPS instead of 10 ng/ml because such rings are not as sensitive to LPS as tissue with an intact endothelium (14). The effective removal of the endothelium was confirmed by the lack of relaxation to acetylcholine by pre-contracted rings during the conditioning procedure.

[4] = tested on: intact endothelium rat aortic rings; test: KCl-induced contraction of intact rat aortic rings after 16 h incubation with LPS and/or PKC inhibitors; type: cell-based; conditions: for EC50: Rattus norvegicus, 16 h, intact endothelium, read-out: EC50 value for KCl stimulated contraction (EC50 of the agonist KCl)
Protocol: FIG. 2 is a graph showing contraction to cumulative doses of KCl by rat aortic rings incubated for 16 hr in combinations of control, LPS, H7, and HA1004 treated media. (Panel A) Response by rings incubated in medium only (open circles), medium plus H7 (25 μM, closed circles), medium containing LPS (10 ng/ml, open triangles), and medium containing LPS plus H7 (closed triangles). (Panel B) For clarity in presentation, responses by rings incubated in medium only (open circles) and LPS treated medium (open triangles) are reproduced from Panel A. Additional rings were incubated in medium plus HA1004 (25 μM, closed circles), and medium containing LPS plus HA1004 (closed triangles). Rings were prepared and data is presented as described in FIG. 1. N=6 rats.
as §2, §3, §4

cAMP dependent kinase = conditions: to an extent comparable to H7 (20); cited from earlier work
[5] = tested on: intact endothelium rat aortic rings; test: NE-induced contraction of intact rat aortic rings after 16 h incubation with LPS and/or PKC inhibitors; type: cell-based; conditions: for EC50: Rattus norvegicus, 16 h, intact endothelium, read-out: EC50 value for NE stimulated contraction (EC50 of the agonist NE)
Protocol: FIG. 1 is a graph showing contraction to cumulative doses of NE by rat aortic rings incubated for 16 hr in combinations of control, LPS (endotoxin or lipopolysaccharide), H7, and N-(2-guanidinoethyl)-5-isoquinolinesulfonamide (HA1004; a negative control for H7) treated media. (Panel A) Responses by rings incubated in medium only (open circles), medium plus H7 (25 μM, closed circles), medium containing LPS (10 ng/ml, open triangles), and medium containing LPS plus H7 (closed triangles). (Panel B) For clarity in presentation, responses by rings incubated in medium only (open circles) and LPS treated medium (open triangles) are reproduced from Panel A. Additional rings were incubated in medium plus HA1004 (25 μM, closed circles), and medium containing LPS plus HA1004 (closed triangles). Six rings were prepared from each rat and one ring allocated into each medium formulation. […] The curves are the best fit of the data by nonlinear least squares to a polynomial model. N=8 rats.
as §2, §3, §4

cGMP dependent kinase = conditions: to an extent comparable to H7 (20); cited from earlier work
[6] = tested on: myosin light chain kinase; conditions: to an extent comparable to H7 (20); cited from earlier work
[7] = LPS-treated media, alone or plus sphingosine 20 μM
[8] = control media (no LPS) plus sphingosine 20 μM
[9] = sphingosine 20 μM plus LPS 35 ng/ml
[10] = LPS 10 ng/ml plus inhibitor 25 μM
[11] = LPS-treated media (10 ng/ml), alone or plus inhibitor 25 μM
[12] = control media (no LPS) plus inhibitor 25 μM
[13] = inhibitor 25 μM by itself, no LPS

CCCCCCCCCCCCC/C=C/[C@@H](O)[C@@H](N)CO [Sphingosine, 4-trans-sphingenine]
inhibition of PKC (PKC): capable of inhibiting PKC in vivo and in vitro
EC50 [1, 7]: 27 mM
EC50 [1, 8]: 24 ± 2 mM
contraction to KCl ([1]; sphingosine 20 μM only, no LPS): suppressed contractions to NE and KCl; also recorded: significantly diminished maximum contractions to NE and KCl
protection against LPS suppression of KCl-induced contraction [1, 9]: significantly protected
EC50 for KCl versus control rings ([1]; sphingosine 20 μM, whether or not LPS was present): not significantly different from control rings
solubility in water [2]: not soluble in water
EC50 [3, 7]: 124 nM
EC50 [3, 8]: 21 nM
abrogation/prevention of LPS-induced contractile dysfunction ([3]; de-endothelialized rings, sphingosine 20 μM): clearly abrogated the majority of the deleterious effects of LPS on rat aortic tissue contractile function; also recorded: can be prevented
contraction to NE ([3]; sphingosine 20 μM only, no LPS): suppressed contractions to NE and KCl; also recorded: significantly diminished maximum contractions to NE and KCl
protection against LPS suppression of NE-induced contraction [3, 9]: significantly protected
sensitivity to NE versus control rings [3, 9]: remained less than that of control rings
sensitivity to NE versus rings exposed only to LPS ([3]; sphingosine 20 μM plus LPS 35 ng/ml, P<0.05): more sensitive to NE than rings exposed only to LPS

N=C(N)NCCNS(=O)(=O)c1cccc2cnccc12 [HA1004, N-(2-guanidinoethyl)-5-isoquinolinesulfonamide]
protection of maximal contractile performance to KCl ([4]; LPS 10 ng/ml plus HA1004 25 μM): small but significant protection of maximal contractile performance
protection against LPS-induced contractile dysfunction (KCl) [4, 10]: did not protect the tissue against LPS-induced diminished sensitivity to KCl
EC50 [4, 11]: 49 mM
EC50 [4, 12]: 36 ± 3 mM
maximum contraction to KCl [4, 13]: significant increases in maximum contraction; also recorded: augmented contractile responses to KCl
sensitivity to KCl [4, 13]: no enhancement in sensitivity to KCl
inhibition of cAMP dependent kinase (cAMP dependent kinase): inhibits
EC50 and Emax (sensitivity and maximum contraction) to NE versus control tissue [5, 10]: significantly depressed sensitivity (Table I) and maximum contraction (FIG. 1B) to NE
EC50 [5, 11]: 0.00276 mM
EC50 [5, 12]: 0.000186 mM
blocking of LPS effects on contraction to NE ([5]; co-incubation, inhibitor 25 μM, LPS 10 ng/ml): ineffective in blocking the effects of LPS on the tissue
contractile function / sensitivity to NE [5, 13]: significant decrease in sensitivity to NE
maximum contraction / ring responses to NE [5, 13]: tended to suppress ring responses to NE; also recorded: apparent, but non-significant, diminution in maximum contraction
inhibition of cGMP dependent kinase (cGMP dependent kinase): inhibits
inhibition of myosin light chain kinase [6]: inhibits
